Columns and labels:
TRKB = TRKB (Homo sapiens (Human), UniProt Q16620); assay: Inhibitory activity on TRKB (ADP-Glo Kinase Assay)
TRKC = TRKC (Homo sapiens (Human), UniProt Q16288); assay: Inhibitory activity on TRKC (ADP-Glo Kinase Assay)
[1] = test system: allergic rhinitis model in mice; assay: Allergic rhinitis model in mice (OVA); type: in vivo, BALB/C mice; conditions: nasal drops twice a day, 7-day treatment; MDI-1233 10 mg/kg, MDI-1228 3 mg/kg, MDI-1288 3 mg/kg; fluticasone propionate positive control
Method: 42-49 day-old BALB/C mice (Manufacturer: Liaoning Changsheng Biotechnology Co., Ltd., License Number: SCXK(therapeutic)2015-0001), both male and female, were reared under conventional diet, at a temperature of 20 to 26° C., and a humidity of 40% to 70%. Animal grouping and modeling: • 1. Blank control group (no treatment) • 2. Allergic rhinitis group (vehicle treatment: saline containing 0.2% Tween 80) • 3. Allergic rhinitis+compound MDI-1233: 1 mg/kg • 4. Allergic rhinitis+compound MDI-1233: 3 mg/kg • 5. Allergic rhinitis+compound MDI-1233: 10 mg/kg • 6. Allergic rhinitis+compound MDI-1228: 3 mg/kg • 7. Allergic rhinitis+compound MDI-1288: 3 mg/kg • 8. Allergic rhinitis+positive control group (Fluticasone propionate, GlaxoSmithKline, E88D
The preparation of an AR model in mice involved sensitizing and challenging BALB/c mice with ovalbumin (OVA) to simulate an acute symptoms caused by natural exposure to an allergen. The experimental animals were weighed and separated by gender. Sensitization was performed on days 1, 5, 9, and 12. From day 13, a daily challenge was carried out for 7 consecutive days. After the last challenge, behavior of the mice was observed and scored. The sensitization method involved intraperitoneal injection of an OVA (Sigma, A5503-1G) suspension in 50 μg/ml in which the OVA suspension was prepared by dissolving 500 μg of ovalbumin and 50 mg of AL(OH)3 (CAS 21645-51-2) into 10 ml of normal saline, pH 7.4, with 200 μl injected per mouse. […] On day 12, a single nasal challenge with 10% OVA was performed (PBS was used for the control group). Scoring was conducted according to the table below, using a superposition method to calculate the total score. A total score greater than 5 was considered as successful. Subsequent experiments were conducted after the modeling was deemed successful.
From day 13, compound administration and challenge were conducted. The compound administration method involved calculating the nasal drops volume according to the mouse's body weight and group requirements, and dissolving the compounds MDI-1233, MDI-1228, MDI-1288 into normal saline containing 0.2% Tween 80 at specific concentrations. The administration was given 30 minutes before the challenge, twice a day. The positive control treatment involved administering nasal drop once (10 μl per side) 30 minutes before OVA nasal stimulation, twice a day. Thirty minutes after the second drug administration, a 10% OVA challenge was conducted, and the amount of nasal discharge, sneezing, and nose scratching were observed and recorded within 30 minutes after each challenge and then scored. The control group was treated with normal saline nasal drops.
After the rhinitis modeling was completed and the scores were stable, mice of each group were anesthetized and sacrificed after a 20-day scoring. Samples were collected, and peripheral serum was obtained by collecting whole blood, and standing it at room temperature for 1 hour and then centrifuging it to collect the supernatant for ELISA detection; nasal mucosa was taken for HE staining (fixed with 10% formalin); and the supernatant of nasal lavage fluid was taken for ELISA detection.
(1) HE Staining: The tissue was rinsed with running water for several hours, dehydrated through a series of ethanol solutions (70%, 80%, 90%), and then treated with a mixture of pure alcohol and xylene for 15 minutes, followed by xylene I for 15 minutes and xylene I1 for 15 minutes (until transparent). The tissue was then placed in a mixture of xylene and paraffin at a volume ratio of 1:1 for 15 minutes, followed by immersion with paraffin I and paraffin II each for 50-60 minutes. The tissue was embedded in paraffin and sectioned, and the sections were spreaded, dried, dewaxed and hydrated in distilled water. […]

TRKA = TRKA (Homo sapiens (Human), UniProt P04629); assay: Inhibitory activity on TRKA (ADP-Glo Kinase Assay)
Sequence of TRKA (P04629 33-796 limits assumed): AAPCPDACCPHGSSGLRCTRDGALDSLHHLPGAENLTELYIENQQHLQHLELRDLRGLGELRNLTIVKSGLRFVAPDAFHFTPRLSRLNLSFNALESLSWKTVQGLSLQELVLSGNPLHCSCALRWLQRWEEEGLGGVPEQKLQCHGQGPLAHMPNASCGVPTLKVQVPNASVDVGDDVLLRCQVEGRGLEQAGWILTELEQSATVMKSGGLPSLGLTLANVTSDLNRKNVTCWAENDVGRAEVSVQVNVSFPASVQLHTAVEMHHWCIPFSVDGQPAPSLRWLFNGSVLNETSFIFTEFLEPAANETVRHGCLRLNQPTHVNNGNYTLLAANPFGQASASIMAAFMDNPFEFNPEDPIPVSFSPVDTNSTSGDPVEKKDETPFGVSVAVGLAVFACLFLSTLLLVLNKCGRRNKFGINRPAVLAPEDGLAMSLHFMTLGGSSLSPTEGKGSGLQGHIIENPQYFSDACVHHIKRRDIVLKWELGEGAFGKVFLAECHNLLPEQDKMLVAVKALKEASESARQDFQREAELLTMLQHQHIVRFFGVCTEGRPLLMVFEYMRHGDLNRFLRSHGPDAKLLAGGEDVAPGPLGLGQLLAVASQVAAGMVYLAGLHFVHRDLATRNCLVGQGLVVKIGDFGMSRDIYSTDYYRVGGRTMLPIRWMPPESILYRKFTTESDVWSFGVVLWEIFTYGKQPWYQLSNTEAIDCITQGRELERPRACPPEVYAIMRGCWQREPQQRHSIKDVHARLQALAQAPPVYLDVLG

Sequence of TRKC (Q16288 32-839): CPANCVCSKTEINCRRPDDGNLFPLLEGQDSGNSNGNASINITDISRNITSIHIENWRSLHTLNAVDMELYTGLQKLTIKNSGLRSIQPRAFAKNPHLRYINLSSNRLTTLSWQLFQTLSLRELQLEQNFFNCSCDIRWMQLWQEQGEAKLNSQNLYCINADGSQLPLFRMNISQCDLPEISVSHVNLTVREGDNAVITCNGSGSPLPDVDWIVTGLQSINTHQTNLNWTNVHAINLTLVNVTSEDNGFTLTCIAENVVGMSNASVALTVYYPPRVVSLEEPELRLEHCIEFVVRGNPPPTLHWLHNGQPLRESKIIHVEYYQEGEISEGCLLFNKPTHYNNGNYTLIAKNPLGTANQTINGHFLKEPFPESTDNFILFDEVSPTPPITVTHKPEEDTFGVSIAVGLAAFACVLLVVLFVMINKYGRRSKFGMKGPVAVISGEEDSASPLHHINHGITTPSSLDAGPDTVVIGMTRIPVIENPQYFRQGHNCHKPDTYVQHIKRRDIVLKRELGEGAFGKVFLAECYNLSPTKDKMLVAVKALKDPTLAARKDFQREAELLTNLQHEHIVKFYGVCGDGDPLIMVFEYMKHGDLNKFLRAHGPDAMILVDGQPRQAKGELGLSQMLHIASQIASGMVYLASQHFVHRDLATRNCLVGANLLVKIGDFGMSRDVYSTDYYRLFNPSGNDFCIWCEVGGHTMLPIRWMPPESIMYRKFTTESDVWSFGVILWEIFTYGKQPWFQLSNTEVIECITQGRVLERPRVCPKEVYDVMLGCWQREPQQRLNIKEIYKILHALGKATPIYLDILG
Sequence of TRKB (Q16620 32-822): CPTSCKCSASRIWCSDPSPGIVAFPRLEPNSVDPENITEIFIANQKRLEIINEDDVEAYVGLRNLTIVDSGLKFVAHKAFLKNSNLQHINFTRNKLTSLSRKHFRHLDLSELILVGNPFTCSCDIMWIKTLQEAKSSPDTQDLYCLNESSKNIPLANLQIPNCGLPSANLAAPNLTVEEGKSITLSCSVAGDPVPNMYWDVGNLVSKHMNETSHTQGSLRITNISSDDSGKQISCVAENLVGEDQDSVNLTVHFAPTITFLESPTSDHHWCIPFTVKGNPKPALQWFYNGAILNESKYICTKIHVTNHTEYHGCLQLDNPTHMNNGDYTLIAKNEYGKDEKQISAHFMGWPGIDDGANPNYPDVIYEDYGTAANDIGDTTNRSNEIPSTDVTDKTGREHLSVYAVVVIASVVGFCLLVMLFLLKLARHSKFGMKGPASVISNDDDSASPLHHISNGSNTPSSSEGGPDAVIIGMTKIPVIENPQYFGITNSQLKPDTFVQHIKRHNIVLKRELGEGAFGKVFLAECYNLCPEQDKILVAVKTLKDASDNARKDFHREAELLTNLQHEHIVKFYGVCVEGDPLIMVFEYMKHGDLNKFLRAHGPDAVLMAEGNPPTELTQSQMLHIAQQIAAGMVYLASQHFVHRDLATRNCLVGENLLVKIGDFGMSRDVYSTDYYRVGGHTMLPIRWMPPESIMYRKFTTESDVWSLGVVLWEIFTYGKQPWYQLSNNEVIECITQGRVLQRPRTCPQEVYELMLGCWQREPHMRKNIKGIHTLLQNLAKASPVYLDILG

Row | Compound | IC50 (TRKB) [nM] | IC50 (TRKC) [nM] | Rhinitis behavioral scoring [1] | IC50 (TRKA) [nM]
1 | CCc1cc(O)c(F)cc1-c1ccc2c(-c3nc4c([nH]3)CN(C(=O)NCC(O)CCl)C4)n[nH]c2c1 (centres unmarked) [MDI-1288] | 1.04 | 0.59 | showed inhibitory effects on both male and female mouse rhinitis models | 0.89
2 | CCc1cc(O)c(F)cc1-c1ccc2c(-c3nc4c([nH]3)CN(C(=O)N3CC[C@H](O)C3)C4)n[nH]c2c1 [MDI-1228, (S)-(2-(6-(2-ethyl-5-fluoro-4-hydroxyphenyl)-1H-indazol-3-yl)-4,6-dihydropyrrolo[3,4-d]imidazol-5-(1H)-yl)(3-hydroxylpyrrolidin-1-yl)ketone] | 1.77 | 0.6 | did not significantly inhibit the allergic response in male mice | 1.82

Source: patent publication US20250387388A1, “COMPOUND AS TRK INHIBITOR AND/OR RET INHIBITOR AND USE THEREOF” (Medinno Pharmaceutical Technology (Zhuhai) Co., Ltd., priority 2022, published 2025)
